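These data come from cells grown in 96-well plates and exposed to compound for 48 hours at five concentrations. GI50: concentration for 50% inhibition of growth.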 Activity calls are given as the source filed them. Cut-off read from the data, not from the text of the source: active = GI50 up to about 1.1 µM and inactive = higher.
Columns and labels:
Experiment in all cases: DTP human tumour cell line panel, 48 h
UACC-62 = system: UACC-62
SK-MEL-2 = system: SK-MEL-2
SF-539 = system: SF-539
NCI/ADR-RES = system: NCI/ADR-RES
A498 = system: A498
HOP-62 = system: HOP-62
COLO 205 = system: COLO 205
A549 = system: A549
MDA-MB-435 = system: MDA-MB-435
NCI-H226 = system: NCI-H226
HCT-15 = system: HCT-15
M14 = system: M14
HCT-116 = system: HCT-116
Hs-578T = system: Hs-578T
HCC 2998 = system: HCC 2998
NCI-H23 = system: NCI-H23
NCI-H460 = system: NCI-H460
SNB-75 = system: SNB-75
RXF 393 = system: RXF 393
HOP-92 = system: HOP-92

SMILES: CNC(=O)OCC1=C(COC(=O)NC)CN(c2ccc(OC)cc2)C1
- GI50 (UACC-62): > 100 µM (inactive)
- GI50 (SK-MEL-2): > 100 µM (inactive)
- GI50 (SF-539): > 100 µM (inactive)
- GI50 (NCI/ADR-RES): > 100 µM (inactive)
- GI50 (A498): 1.9 µM (inactive)
- GI50 (HOP-62): > 100 µM (inactive)
- GI50 (COLO 205): > 100 µM (inactive)
- GI50 (A549): > 100 µM (inactive)
- GI50 (MDA-MB-435): > 100 µM (inactive)
- GI50 (NCI-H226): 4.2 µM (inactive)
- GI50 (HCT-15): > 100 µM
- GI50 (M14): > 100 µM (inactive)
- GI50 (HCT-116): > 100 µM (inactive)
- GI50 (Hs-578T): > 100 µM (inactive)
- GI50 (HCC 2998): > 100 µM (inactive)
- GI50 (NCI-H23): > 100 µM (inactive)
- GI50 (NCI-H460): > 100 µM (inactive)
- GI50 (SNB-75): > 100 µM (inactive)
- GI50 (RXF 393): > 100 µM (inactive)
- GI50 (HOP-92): > 100 µM (inactive)

SMILES: CC1(C)N=C(c2ccccc2)SC12S[C@@H]1CCCC[C@H]1S2
- GI50 (UACC-62): > 100 µM (inactive)
- GI50 (SK-MEL-2): > 100 µM (inactive)
- GI50 (SF-539): > 100 µM (inactive)
- GI50 (NCI/ADR-RES): > 100 µM (inactive)
- GI50 (A498): 17.9 µM (inactive)
- GI50 (HOP-62): > 100 µM (inactive)
- GI50 (COLO 205): > 100 µM (inactive)
- GI50 (A549): > 100 µM (inactive)
- GI50 (MDA-MB-435): > 100 µM (inactive)
- GI50 (NCI-H226): > 100 µM (inactive)
- GI50 (HCT-15): > 100 µM
- GI50 (M14): > 100 µM (inactive)
- GI50 (HCT-116): > 100 µM (inactive)
- GI50 (Hs-578T): 4.57 µM (inactive)
- GI50 (NCI-H23): 14.7 µM (inactive)
- GI50 (NCI-H460): > 100 µM (inactive)
- GI50 (SNB-75): > 100 µM (inactive)
- GI50 (RXF 393): > 100 µM (inactive)
- GI50 (HOP-92): > 100 µM (inactive)

SMILES: O=Nn1c2ccccc2c2cc([N+](=O)[O-])ccc21
- GI50 (UACC-62): 16 µM (inactive)
- GI50 (SK-MEL-2): 36.3 µM (inactive)
- GI50 (SF-539): 20.3 µM (inactive)
- GI50 (NCI/ADR-RES): 20.2 µM (inactive)
- GI50 (A498): 12.4 µM (inactive)
- GI50 (HOP-62): 12.3 µM (inactive)
- GI50 (COLO 205): 34.3 µM (inactive)
- GI50 (A549): 19.9 µM (inactive)
- GI50 (MDA-MB-435): 17.1 µM (inactive)
- GI50 (HCT-15): 22.3 µM
- GI50 (M14): 20 µM (inactive)
- GI50 (HCT-116): 13.9 µM (inactive)
- GI50 (Hs-578T): 31.7 µM (inactive)
- GI50 (HCC 2998): 33 µM (inactive)
- GI50 (NCI-H23): 17.3 µM (inactive)
- GI50 (NCI-H460): 18 µM (inactive)
- GI50 (SNB-75): 7.23 µM (inactive)
- GI50 (RXF 393): 16.4 µM (inactive)
- GI50 (HOP-92): 14.3 µM (inactive)

SMILES: Oc1nc2ccccc2c2oc3ccccc3c12
- GI50 (UACC-62): > 100 µM (inactive)
- GI50 (SF-539): > 100 µM (inactive)
- GI50 (NCI/ADR-RES): > 100 µM (inactive)
- GI50 (A498): > 100 µM (inactive)
- GI50 (HOP-62): 88.9 µM (inactive)
- GI50 (COLO 205): > 100 µM (inactive)
- GI50 (A549): > 100 µM (inactive)
- GI50 (MDA-MB-435): > 100 µM (inactive)
- GI50 (NCI-H226): > 100 µM (inactive)
- GI50 (HCT-15): > 100 µM
- GI50 (M14): > 100 µM (inactive)
- GI50 (Hs-578T): 37.9 µM (inactive)
- GI50 (HCC 2998): > 100 µM (inactive)
- GI50 (NCI-H23): > 100 µM (inactive)
- GI50 (NCI-H460): > 100 µM (inactive)
- GI50 (SNB-75): 6.81 µM (inactive)
- GI50 (RXF 393): 82 µM (inactive)
- GI50 (HOP-92): 23.2 µM (inactive)

SMILES: COc1cc([N+](=O)[O-])ccc1N1C(=O)C2c3[nH]c4ccccc4c3C3CCC(C(C)(C)C)CC3C2C1=O (centres undefined)
- GI50 (UACC-62): 19.6 µM (inactive)
- GI50 (SK-MEL-2): 94.8 µM (inactive)
- GI50 (SF-539): 62.8 µM (inactive)
- GI50 (NCI/ADR-RES): 22.3 µM (inactive)
- GI50 (A498): > 100 µM (inactive)
- GI50 (HOP-62): 7.43 µM (inactive)
- GI50 (COLO 205): > 100 µM (inactive)
- GI50 (A549): > 100 µM (inactive)
- GI50 (MDA-MB-435): 17.4 µM (inactive)
- GI50 (NCI-H226): > 100 µM (inactive)
- GI50 (HCT-15): > 100 µM
- GI50 (M14): 13.6 µM (inactive)
- GI50 (HCT-116): 44.5 µM (inactive)
- GI50 (Hs-578T): 5.6 µM (inactive)
- GI50 (HCC 2998): > 100 µM (inactive)
- GI50 (NCI-H23): 31 µM (inactive)
- GI50 (NCI-H460): 18.9 µM (inactive)
- GI50 (HOP-92): 22 µM (inactive)

— ChEMBL document CHEMBL1201862, “PubChem BioAssay data set” (2004)
